Where “and” joins values, the source holds several entries; their conditions need not be identical. Equal values may be shown once.
Assays:
CYP3A4 = conditions: preclinical in vitro studies; cited from earlier work
[1] = Pharmacokinetic parameters of GP1707D07 (HPLC-MS/MS, non-compartmental) in the GP681-itraconazole drug-drug interaction study; assay type: in vivo, healthy Chinese subjects
Method: This single-center, open-label, self-controlled, fixed-sequence study, sponsored by Qingfeng Pharmaceutical Group Co., Ltd., was conducted at a single clinical research site in the China–Japan Friendship Hospital (Beijing, China). Each subject received the following treatment: Suraxavir Marboxil (GP681) 20 mg in the fasted state on day 1 and day 26. Itraconazole capsules (Sporanox®: Xi’an Yangsen Pharmaceutical Co., Ltd., China) 0.2 g twice daily (BID, bis in die) on day 22. Itraconazole 0.2 g daily from day 23 to day 36 [including day 26, when itraconazole was co-administrated with Suraxavir Marboxil (GP681)]. The washout period is 21 days (Figure 2). It should be noted that in the following sections, when discussing the PK profile, this study was divided into Period 1 (Suraxavir Marboxil (GP681) monotherapy, from day −1 to day 12), and Period 2 (Suraxavir Marboxil (GP681)-itraconazole co-administration, from day 21 to day 36). When discussion the safety profile, this study was divided into Stage 1 (Suraxavir Marboxil (GP681) monotherapy stage, from day 1 to day 21), Stage 2 (itraconazole monotherapy stage, from day 22 to day 25), and Stage 3 (Suraxavir Marboxil (GP681)-itraconazole co-administration stage, from d 26 to d 36).
Blood samples were collected at the following time points: pre–dose, 0.5, 1, 2, 3, 4, 5, 6, 8, 12, 24, 36, 48, 72, 120, 168, and 264 h post-dose on day 1 and day 26. In addition, a blood sample were collected before dosing on day 1 for genetic polymorphism assessment.
A validated high-performance liquid chromatography-tandem mass spectrometry (HPLC-MS/MS) method was used to determine plasma concentrations of Suraxavir Marboxil (GP681) and its active metabolite GP1707D07 at different times, with the quantification range of 0.3/0.3–300/300 ng/mL for Suraxavir Marboxil (GP681) and GP1707D07. The lower limit of quantification (LLOQ) for both compounds was 0.300 ng/mL. Phoenix® WinNonlin® 8.3 was used to estimate and analyze the pharmacokinetic parameters of non-compartmental model from plasma concentration data. Pharmacokinetic parameters included: maximum plasma concentration (Cmax), area under the plasma concentration-time curve extrapolated from time zero to infinity (AUC0- ∞ ), time to Cmax (Tmax), half-life (t1/2), λz, AUC_%Extrap, Vz/F, CL/F, and mean residence time (MRT).
Statistical analysis was performed using SAS (version 9.4 or above) software programming. Pharmacokinetic concentration analysis was based on Pharmacokinetic Analysis Concentration Set (PKCS). Individual and mean concentrations (mean ± SD) were plotted against planned blood sampling time points for the analyte on linear and semi-log scales. Pharmacokinetic parameter analysis was based on Pharmacokinetic Analysis Parameter Set (PKPS). Drug interaction analysis was based on Drug Interaction Set (DIS). The geometric mean ratios and their 90% confidence intervals of pharmacokinetic parameters Cmax, AUC0-t, and AUC0- ∞ under Suraxavir Marboxil (GP681) single dose and Suraxavir Marboxil (GP681)-itraconazole co-administration conditions were calculated after natural logarithm transformation, using a linear mixed effects model with subjects as random effects and treatment (combined/single) as fixed effects.
1.3 Pharmacokinetic Sample Collection and Processing: Pharmacokinetic Analysis: Approximately 4 mL of blood is collected each time into a tube containing sodium fluoride/potassium oxalate as an anticoagulant. The tube is then placed upright in an ice-water bath. The plasma samples are separated by centrifugation for the detection of GP681/GP1707D07 blood drug concentrations. Both sample collection and processing are conducted under white light conditions. […]

[2] = GP681 + itraconazole vs GP681 alone, N=12
[3] = Period 1, GP681 20 mg monotherapy, geometric mean, N=12
[4] = Period 1, GP681 20 mg monotherapy, individual subjects
[5] = Period 1, GP681 20 mg monotherapy, mean, N=12
[6] = Period 1, GP681 20 mg monotherapy, median, N=12
[7] = Period 2, GP681 20 mg + itraconazole, geometric mean, N=12

For `O=C1c2c(O)c(=O)ccn2N([C@@H]2c3ccccc3SCc3c2ccc(F)c3F)[C@@H]2COC3(CC3)CN12` [GP1707D07], the “substrate of CYP3A4” value (CYP3A4) is listed as “is a substrate of CYP3A4”, the “AUC0-t: point estimate of geometric mean ratio (90% CI) Period 2/Period 1” value [1, 2] is listed as 215.2% and 215.2 (170.7, 271.3) % and the “AUC0-∞: point estimate of geometric mean ratio (90% CI) Period 2/Period 1” value [1, 2] is listed as 255.4% and 255.4 (204.5, 319.0) %. The “Cmax: point estimate of geometric mean ratio (90% CI) Period 2/Period 1” value [1, 2] was 137.7% and 137.7 (98.5, 192.3) %, the AUC0-t [1, 3] was 955.800 ng·h/mL and the AUC_%Extrap [1, 3] was 7.117%. The CL/F [1, 3] was 19.255 L/h, the Cmax [1, 3] was 16.0 ng/mL and 16.0070 ng/mL and the MRT0-t [1, 3] was 66.790 h. For the same compound, the “MRT0-∞” value [1, 3] was 87.2 h and 87.218 h, the Tmax [1, 3] was 3.7 h and the Vz/F [1, 3] was 1799.125 L. For the same compound, the t1/2 [1, 3] was 64.8 h and 64.764 h, the λz [1, 3] was 0.0107 h⁻¹ and the AUC0-t [1, 4] was 1770.18 ng·h/mL and 1069.77 ng·h/mL and 1199.27 ng·h/mL and 602.25 ng·h/mL and 1158.79 ng·h/mL and 728.18 ng·h/mL and 1487.97 ng·h/mL and 759.35 ng·h/mL and 1247.30 ng·h/mL and 1364.54 ng·h/mL and 354.04 ng·h/mL and 739.81 ng·h/mL and 1069.8 ng·h/mL and 1199.3 ng·h/mL and 602.3 ng·h/mL and 1158.8 ng·h/mL and 728.2 ng·h/mL and 1488.0 ng·h/mL and 759.4 ng·h/mL and 1364.5 ng·h/mL and 354.0 ng·h/mL and 739.8 ng·h/mL and 1770.2 ng·h/mL. The “AUC0-∞” value [1, 4] was 1874.52 ng·h/mL and 1171.14 ng·h/mL and 1273.75 ng·h/mL and 689.41 ng·h/mL and 1290.37 ng·h/mL and 801.51 ng·h/mL and 1650.91 ng·h/mL and 781.02 ng·h/mL and 1310.49 ng·h/mL and 1409.63 ng·h/mL and 407.77 ng·h/mL and 814.16 ng·h/mL, the AUC_%Extrap [1, 4] was 5.57% and 8.66% and 5.85% and 12.64% and 10.20% and 9.15% and 9.87% and 2.78% and 4.82% and 3.20% and 13.18% and 9.13% and the CL/F [1, 4] was 10.67 L/h and 17.08 L/h and 15.70 L/h and 29.01 L/h and 15.50 L/h and 24.95 L/h and 12.11 L/h and 25.61 L/h and 15.26 L/h and 14.19 L/h and 49.05 L/h and 24.57 L/h. For the same compound, the Cmax [1, 4] was 44.439 ng/mL and 17.988 ng/mL and 26.933 ng/mL and 7.24 ng/mL and 15.539 ng/mL and 12.018 ng/mL and 25.999 ng/mL and 16.03 ng/mL and 20.468 ng/mL and 30.14 ng/mL and 3.382 ng/mL and 11.179 ng/mL and 18.0 ng/mL and 26.9 ng/mL and 7.2 ng/mL and 15.5 ng/mL and 12.0 ng/mL and 26.0 ng/mL and 16.0 ng/mL and 20.5 ng/mL and 30.1 ng/mL and 3.4 ng/mL and 11.2 ng/mL and 44.4 ng/mL, the MRT0-t [1, 4] was 61.44 h and 71.79 h and 62.61 h and 74.73 h and 74.78 h and 69.62 h and 63.68 h and 57.28 h and 63.69 h and 56.39 h and 80.89 h and 69.22 h and the “MRT0-∞” value [1, 4] was 75.90 h and 95.15 h and 78.26 h and 108.96 h and 102.37 h and 94.31 h and 93.23 h and 64.34 h and 75.97 h and 64.54 h and 117.49 h and 94.32 h. The Tmax [1, 4] was 3 h and 6 h and 2 h and 5 h and 4 h, the Vz/F [1, 4] was 857.04 L and 1725.92 L and 1402.22 L and 3031.63 L and 1619.87 L and 2462.69 L and 1483.10 L and 1801.98 L and 1183.17 L and 996.59 L and 5767.31 L and 2522.77 L and the t1/2 [1, 4] was 55.68 h and 70.05 h and 61.90 h and 72.43 h and 72.44 h and 68.41 h and 84.86 h and 48.78 h and 53.74 h and 48.69 h and 81.51 h and 71.18 h. For the same compound, the λz [1, 4] was 0.012 h⁻¹ and 0.010 h⁻¹ and 0.011 h⁻¹ and 0.008 h⁻¹ and 0.014 h⁻¹ and 0.013 h⁻¹ and 0.009 h⁻¹, the AUC_%Extrap [1, 5] was 7.9 (3.4) % and 7.919% and the CL/F [1, 5] was 21.1 (10.6) L/h and 21.141 L/h. For the same compound, the Cmax [1, 5] was 19.3 (11.2) ng/mL and 19.2796 ng/mL, the MRT0-t [1, 5] was 67.2 (7.5) h and 67.176 h and the “MRT0-∞” value [1, 5] was 88.7 (17.0) h and 88.737 h. For the same compound, the Tmax [1, 5] was 4.0 h, the Vz/F [1, 5] was 2071.2 (1,333.0) L and 2071.190 L and the t1/2 [1, 5] was 65.8 (12.1) h and 65.805 h. For the same compound, the λz [1, 5] was 0.011 (0.0021) h-1 and 0.0109 h-1, the Tmax ([1]; Period 1, GP681 20 mg monotherapy, median (range), N=12) was 4.0 (2.0–6.0) h and the AUC0-t [1, 6] was 1114.281 ng·h/mL. The “AUC0-∞” value [1, 6] was 1222.445 ng·h/mL, the AUC_%Extrap [1, 6] was 8.894% and the CL/F [1, 6] was 16.390 L/h. The Cmax [1, 6] was 17.0090 ng/mL, the MRT0-t [1, 6] was 66.454 h and the “MRT0-∞” value [1, 6] was 93.771 h. For the same compound, the Vz/F [1, 6] was 1672.897 L, the t1/2 [1, 6] was 69.231 h and the λz [1, 6] was 0.0100 h⁻¹. For the same compound, the AUC0-t [1, 7] was 2057.0 ng·h/mL and 2057.031 ng·h/mL, the AUC_%Extrap [1, 7] was 21.847% and the CL/F [1, 7] was 7.539 L/h.
